Source: patent US20100291089A1, “LIGAND OF REGULATING IMMUNE RESPONSE, AND USE THEREOF IN TREATING AN IMMUNE RESPONSE-RELATED DISEASE” (POSTECH ACADEMY-INDUSTRY FOUNDATION, priority 2005, published 2010)
Blank lines part the entries; values can stand above or below the molecule they belong to. Where no end group is shown, it is not given here.

How the values were obtained:
[1] = system: RA FLS; experiment: Cell proliferation assay ([3H]-thymidine incorporation, cell counts) in RA FLS; type: cell-based, human; details: SAA 5 μM, 72 h, PTX 100 ng/ml, U73122 1 μM, PD98059 50 μM, LY294002 50 μM
Description: Fibroblast-like synoviocytes (FLS) were prepared from synovial samples obtained from patients suffering from RA and osteoarthritis (OA), all of whom were also undergoing total joint replacement surgery. The FLS were isolated from the synovial tissues in accordance with a previously described procedure (Cho, C. S., M. L. Cho, S. Y. Min, W. U. Kim, D. J. Min, S. S. Lee, S. H. Park, J. Choe, and H. Y. Kim. 2000. CD40 engagement on synovial fibroblast up-regulates production of vascular endothelial growth factor. J. Immunol. 164: 5055-5061).
In brief, fresh synovial tissues were minced into 2- to 3-mm pieces, then treated for 4 h with 4 mg/ml type I collagenase (Worthington Biochemical), and maintained in Dulbecco's Modified Eagle's Medium (DMEM) containing 10% FBS at 37° C. in an atmosphere containing 5% CO2. […] MH7A cells, the immortalized synoviocytes that harbor the SV40 T antigen, were grown in DMEM supplemented with 10% FBS, as previously described (Miyazawa, K, A. Mori, and H. Okudaira. 1998. Establishment and characterization of a novel human rheumatoid fibroblast-like synoviocyte line, MH7A, immortalized with SV40T antigen. J. Biochem. 124: 1153-1162), and then employed in some of the experiments. Human umbilical vein endothelial cells (HUVECs) were isolated from fresh human umbilical cords via collagenase (Worthington Biochemical) digestion, and then maintained in 20% FBS-containing M-199 medium (Sigma, St. Louis, Mo.), as previously described. All HUVECs were used after no more than five passages.
The RA FLS, OA FLS, and HUVECs were plated onto 24-well culture dishes at a density of 2×10^4 cells/well, and then permitted to attach overnight. After 24 h of serum starvation, the cells were treated for 72 h with a variety of mitogens. [^3H]-thymidine (1 μCi) was added to each of the wells prior to the final 6 h of incubation. Cell growth was also evaluated via cell counts. Control and mitogen-treated cells were harvested by trypsinization, and the number of cells was determined with a hemocytometer, under ×100 magnification.

[2] = system: human neutrophils; experiment: Intracellular calcium mobilization (fura-2) in human neutrophils; type: cell-based; details: 1 M peptide
Description: Neutrophils were stimulated with 1 μM of PACAP27 (SEQ ID NO:1), PACAP38 (SEQ ID NO:2), or VIP (SEQ ID NO:3), and calcium concentrations were measured for 10 min. In order to measure EKR phosphorylation, each peptide hormones was used with 1 μM concentrations for 5 min. For cAMP measurement, each peptide hormones was used with 1 μM concentrations for 10 min.
(§1) Intracellular calcium concentrations ([Ca^2+]i) were determined using Grynkiewicz's method with fura-2/AM, as described in “Grynkiewicz, G., M. Poenie, and R. Y. Tsien. 1985. […] J. Biol. Chem. 260:3440-3450”. Briefly, the cells prepared in Example 1.2 were incubated with 3 µM fura-2/AM at 37° C. for 50 minutes in fresh serum free RPMI 1640 medium with continuous stirring. The incubated cells (2×10^6) were aliquoted for each assay in Ca^2+-free Locke's solution (154 mM NaCl, 5.6 mM KCl, 1.2 mM MgCl2, 5 mM HEPES (pH 7.3), 10 mM glucose, and 0.2 mM EGTA). Fluorescence changes at 340 and 380 nm using a common emission wavelength of 500 nm were measured, and fluorescence ratios were converted to [Ca2+]i, as described in above Grynkiewicz, G. et al.

[3] = biological target: T1, formyl peptide receptor-like 1 (FPRL1) (human, UniProt P25090 1-351); experiment: cell-based or functional assay
T1 construct: in the other assays endogenous on human neutrophils, monocytes, synoviocytes (FLS, MH7A) or HUVECs; also called FPRL1/RBL; lipoxin A4 receptor (LXA4R)
T1 sequence: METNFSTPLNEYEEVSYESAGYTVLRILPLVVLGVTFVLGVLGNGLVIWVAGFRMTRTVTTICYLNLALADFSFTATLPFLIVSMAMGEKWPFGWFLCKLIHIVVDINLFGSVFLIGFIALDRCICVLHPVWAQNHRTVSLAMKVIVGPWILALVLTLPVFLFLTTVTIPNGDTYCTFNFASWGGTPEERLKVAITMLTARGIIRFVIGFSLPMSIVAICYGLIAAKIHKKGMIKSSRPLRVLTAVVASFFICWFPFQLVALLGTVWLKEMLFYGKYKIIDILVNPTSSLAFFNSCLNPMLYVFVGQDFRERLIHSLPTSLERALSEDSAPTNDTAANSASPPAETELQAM

[4] = system: HUVECs; experiment: HUVEC wounding migration assay; type: cell-based, human; details: SAA 5 μM, WKYMVm 10 nM, VEGF 20 ng/ml; 12 h
Description: […] After 12 h of incubation, migration was quantitated via counts of the cells migrating beyond the reference line. For the tube formation assay, the HUVECs were seeded on a layer of previously polymerized Matrigel (BD Biosciences) with SAA (SEQ ID NO:19) (5 μg/ml), WKYMVm (SEQ ID NO:5) peptide (10 nM), a specific ligand for FPRL1 (32, 33) or VEGF (20 ng/ml). After 18 h of incubation, the cell morphology was visualized via phase-contrast microscopy and photographed.

[5] = biological target: T2, FPRL1 (Homo sapiens, UniProt P25090); experiment: Intracellular calcium mobilization (fura-2) in FPRL1/RBL cells; type: cell-based
T2 construct: expressed in transfected cells
T2 sequence (P25090 1-351): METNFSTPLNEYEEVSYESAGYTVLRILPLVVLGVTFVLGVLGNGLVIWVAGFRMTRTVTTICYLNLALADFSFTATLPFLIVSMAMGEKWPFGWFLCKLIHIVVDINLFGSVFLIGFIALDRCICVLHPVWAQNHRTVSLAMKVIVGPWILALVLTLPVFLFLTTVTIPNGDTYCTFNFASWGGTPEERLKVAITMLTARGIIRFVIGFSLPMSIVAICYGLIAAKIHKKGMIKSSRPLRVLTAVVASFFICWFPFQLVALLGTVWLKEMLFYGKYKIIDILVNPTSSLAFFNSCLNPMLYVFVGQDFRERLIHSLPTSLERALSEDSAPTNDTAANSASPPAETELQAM
Description: FPRL1-expressing rat basophile leukemia (RBL)-2H3 (FPRL1/RBL), FPR-expressing RBL-2H3 (FPR/RBL), and vector-transfected RBL-2H3 (vector/RBL) were donated by Dr. Richard D. Ye (University of Illinois). FPRL1/RBL, FPR/RBL, and vector/RBL were maintained at 37° C. in a humidified 5% CO2 atmosphere in high glucose DMEM supplemented with 20% (vol/vol) heat-inactivated fetal calf serum and G418 ([…]). FPRL1/RBL, FPR/RBL, and vector/RBL were sub-cultured every three days. The prepared cells were used in the following examples.
as §1

[6] = system: human neutrophils; experiment: FACS analysis of surface CD11b expression on neutrophils; type: cell-based; details: 1 μM or 10 μM, 1 hour
Description: Purified neutrophils were incubated with indicated concentration of PACAP27 (SEQ ID NO:1) for 1 hour. Cells (2×10^5/assay) were washed with FACS buffer (PBS containing 1% BSA and 0.1% sodium azide), incubated with human AB type serum for 10 minutes on ice, and stained with PE-labeled human CD11b antibody (BD PharMingen, San Diego, Calif.). They were then analyzed using a FACSCalibur system (BD Biosciences, San Jose, Calif.), as described in “Harfi, I., S. D'Hondt, F. Corazza, and E. Sariban. 2004. J. Immunol. 173:4154-4163”.

[7] = biological target: T2, FPRL1; experiment: Ligand binding analysis, 125I-labeled PACAP27 on FPRL1/RBL cells; details: compared with PACAP27
Description: The ligand binding analysis was performed as described in “Bae, Y. S., H. Y. Lee, E. J. Jo, J. I. Kim, H. K. Kang, R. D. Ye, J. Y. Kwak, and S. H. Ryu. 2004. J. Immunol. 173:607-614”. Briefly, FPRL1/RBL cells were seeded at 1×10^5 cells/well onto a 24 well plate and cultured overnight. After blocking them with blocking buffer (33 mM HEPES, pH 7.5, 0.1% BSA in RPMI 1640 medium) for 2 hours, 50 pM of ^125I-labeled PACAP27 (Perkin-Elmer, Boston, Mass.) was added to the cells in binding buffer (PBS containing 0.1% BSA), in the presence of the test peptides (cold PACAP27 (SEQ ID NO:1), truncated-PACAPs, and chimeric PACAPs), and then incubated for 3 hours at 4° C. with continuous shaking. The cells were then washed 5 times with ice-cold binding buffer, and 200 µL of lysis buffer (20 mM Tris, pH 7.5, 1% Triton X-100) was added to each well for 20 minutes at room temperature. Lysates were then collected and counted using a γ-ray counter.

[8] = biological target: T1, formyl peptide receptor-like 1 (FPRL1); experiment: displacement of 125I-PACAP27 by unlabeled peptide on FPRL1/RBL cells

Molecule: COc1cccc(-c2cc(=O)c3ccccc3o2)c1N [PD98059]
blockage of the proliferative and anti-apoptotic activities of SAA [1]: almost complete blockage

Molecule: COc1ccc2c(c1)CC[C@@H]1[C@@H]2CC[C@]2(C)[C@@H](NCCCCCCN3C(=O)C=CC3=O)CC[C@@H]12 [U73122]
blockage of the proliferative and anti-apoptotic activities of SAA [1]: almost complete blockage

Molecule: PACAP38: pituitary adenylate cyclase-activating polypeptide, 38 amino acids, SEQ ID NO:2 (HSDGIFTDSYSRYRKQMAVKKYLAAVLGKRYKQRVKNK; ends and bridges not checked; listed as Homo sapiens)
[Ca2+]i increase in human neutrophils [2]: neither PACAP38 (SEQ ID NO:2) nor VIP (SEQ ID NO:3) increased [Ca2+]i

Molecule: VEGF
migratory activity of HUVECs relative to control cells [4]: approximately 3 times

Molecule: boiled PACAP27: PACAP27 heat-inactivated for 10 minutes in boiling water (HSDGIFTDSYSRYRKQMAVKKYLAAVL; not fully specified; ends and bridges not checked; listed as Homo sapiens)
CD11b up-regulation compared with PACAP27 [6]: no difference

Molecule: polymyxin b-treated PACAP27: PACAP27 pretreated with 5 μM polymyxin b for 1 hour in 37° C. (HSDGIFTDSYSRYRKQMAVKKYLAAVL; not fully specified; ends and bridges not checked; listed as Homo sapiens)
CD11b up-regulation compared with PACAP27 [6]: no difference

Now from value to molecule, other results behind:

intracellular Ca2+ in RA FLS (Fluo-3, calcium imaging), SAA 3 µM [3]: 2.3 fold
Molecule: Serum amyloid A (SAA) (from UniProt P0DJI8 19-94) (ligand)

[Ca2+]i increase / activation of FPRL1 [5]: does not interact with FPRL1
Molecule: VIP: vasoactive intestinal peptide, SEQ ID NO:3
[Ca2+]i increase in human neutrophils [2]: neither PACAP38 (SEQ ID NO:2) nor VIP (SEQ ID NO:3) increased [Ca2+]i

[Ca2+]i increase / activation of FPRL1 [5]: partially activate
Molecule: tPACAP9-27: truncated PACAP27, SEQ ID NO:7 (SYSRYRKQMAVKKYLAAVL; ends and bridges not checked; listed as Homo sapiens)
binding affinity to FPRL1 (in words) [7]: almost the same binding affinity as PACAP27

Kd [8]: 51.2 nM
B1: cPACAP9VIP (chimeric PACAP) (peptide)
peptide: HSDGIFTDNYSRYRKQMAVKKYLAAVL
modifications: ends and bridges not checked
notes: PACAP27 with the VIP residue at position 9; bought from GenScript

Kd [8]: 51.2 nM
B2: cPACAP13VIP (chimeric PACAP) (peptide)
peptide: HSDGIFTDSYSRLRKQMAVKKYLAAVL
modifications: ends and bridges not checked
notes: PACAP27 with the VIP residue at position 13; bought from GenScript

binding result [8]: binds
B3: tPACAP9-27 (truncated PACAP) (peptide)
peptide: SYSRYRKQMAVKKYLAAVL
modifications: ends and bridges not checked
notes: Synthetic truncation of PACAP27; the range is counted on PACAP27, by the peptide's name
